Eleven compounds from patent publication US10722501B2 (BAYER AKTIENGESELLSCHAFT, priority 2016, dated 2020) can be followed below.

The IC50 is the midpoint of a concentration-inhibition curve.

The target of this assay is T1, recombinant full-length human prolyl endopeptidase (PREP) (Homo sapiens, UniProt P48147).
T1 construct: To recombinant full-length human prolyl endopeptidase (PREP, R&D-Systems, 4308-SE); purchased R&D-Systems 4308-SE
T1 sequence (P48147 1-710): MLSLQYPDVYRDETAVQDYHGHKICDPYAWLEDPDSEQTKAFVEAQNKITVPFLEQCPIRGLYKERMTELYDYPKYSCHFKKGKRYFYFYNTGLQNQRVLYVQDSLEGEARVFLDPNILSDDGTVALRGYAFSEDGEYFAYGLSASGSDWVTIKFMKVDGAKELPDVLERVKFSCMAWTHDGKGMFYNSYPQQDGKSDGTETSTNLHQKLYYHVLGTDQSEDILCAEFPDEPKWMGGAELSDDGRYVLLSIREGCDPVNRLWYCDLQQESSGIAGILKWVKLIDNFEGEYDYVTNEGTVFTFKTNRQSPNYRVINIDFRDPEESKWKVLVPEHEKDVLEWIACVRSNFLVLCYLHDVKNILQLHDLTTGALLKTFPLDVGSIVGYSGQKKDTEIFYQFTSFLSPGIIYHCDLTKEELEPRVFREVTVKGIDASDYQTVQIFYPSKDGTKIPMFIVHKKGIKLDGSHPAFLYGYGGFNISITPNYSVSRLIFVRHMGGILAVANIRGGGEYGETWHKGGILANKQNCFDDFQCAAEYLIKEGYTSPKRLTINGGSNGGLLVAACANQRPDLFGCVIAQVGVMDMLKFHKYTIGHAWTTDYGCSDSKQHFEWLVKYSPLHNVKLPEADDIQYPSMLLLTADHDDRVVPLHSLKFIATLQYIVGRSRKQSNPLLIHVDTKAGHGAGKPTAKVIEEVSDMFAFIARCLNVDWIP
In words: Biochemical human prolyl endopeptidase (PREP) assay with fluorescently labelled substrate. To be noted: substrate Z-Gly-Pro-AMC 50 μM, 32° C., 60 min; some as mean values from multiple independent determinations. An outline of the steps: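 Initial rates of fluorescence increase from 50 μM Z-Gly-Pro-AMC cleavage (ex 360/em 465 nm, 60 min, 32° C) give percent PREP activity versus no-compound control, and IC50 is interpolated. Enzyme used at 0.4 nM (final, example) in Tris pH 7.5 with EDTA, GSH, BSA and Brij-35; compounds span 1 nM to 30 μM.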
Turning to `O=C(C1CCCc2nn(Cc3ccc(C(F)(F)F)nc3)c(=O)n21)N1CC[C@@H](F)C1` (mixture of isomers) [Example 100, (5RS)-5-{[(3R)-3-Fluoropyrrolidin-1-yl]carbonyl}-2-{[6-(trifluoromethyl)pyridin-3-yl]methyl}-5,6,7,8-tetrahydro[1,2,4]triazolo[4,3-a]pyridin-3(2H)-one], the half-inhibitory concentration (IC50) amounted to 7.9 nM.

For `Cc1ccc(Cn2nc3n(c2=O)[C@H](C(=O)N2CC(C(F)F)C2)CCC3)cc1` [Example 149, (5S)-5-{[3-(Difluoromethyl)azetidin-1-yl]carbonyl}-2-(4-methylbenzyl)-5,6,7,8-tetrahydro[1,2,4]triazolo[4,3-a]pyridin-3(2H)-one], the concentration for half-maximal inhibition (IC50) turned out to be 2.5 nM.

`N#C[C@@H]1CCCN1C(=O)[C@@H]1CCCc2nn(Cc3ccc(C(F)(F)F)nc3)c(=O)n21` [Example 511, (2S)-1-{[(5S)-3-Oxo-2-{[6-(trifluoromethyl)pyridin-3-yl]methyl}-2,3,5,6,7,8-hexahydro[1,2,4]triazolo[4,3-a]pyridin-5-yl]carbonyl}pyrrolidine-2-carbonitrile]: the 50% inhibitory concentration (IC50) was 0.365 nM.

With `O=C([C@@H]1CCCc2nn(Cc3cccc(Br)c3)c(=O)n21)N1C[C@@H](F)[C@@H](F)C1` [Example 211, (5S)-2-(3-Bromobenzyl)-5-{[(3R,4S)-3,4-difluoropyrrolidin-1-yl]carbonyl}-5,6,7,8-tetrahydro[1,2,4]triazolo[4,3-a]pyridin-3(2H)-one], the IC50 came out at 0.15 nM.

Regarding `O=C(C1CC(C(F)(F)F)Cc2nn(Cc3cncc(Cl)c3)c(=O)n21)N1CC[C@H](F)C1` (single isomer, unassigned) [Example 318], the concentration for half-maximal inhibition (IC50) is 518 nM.

For the compound `Cc1noc(-c2ccc(Cn3nc4n(c3=O)C(C(=O)N3CCCC3)CCC4)cc2)n1` (racemic) [Example 9, (5RS)-2-[4-(3-Methyl-1,2,4-oxadiazol-5-yl)benzyl]-5-(pyrrolidin-1-ylcarbonyl)-5,6,7,8-tetrahydro[1,2,4]triazolo[4,3-a]pyridin-3(2H)-one], the half-inhibitory concentration (IC50) stood at 39 nM.

`O=C(C1CC(C(F)(F)F)Cc2nn(Cc3ncc(Cl)cc3F)c(=O)n21)N1CC[C@H](F)C1` (mixture of isomers) [Example 263, (5RS,7RS)-2-[(5-Chloro-3-fluoropyridin-3-yl)methyl]-5-{[(3S)-3-fluoropyrrolidin-1-yl]carbonyl}-7-(trifluoromethyl)-5,6,7,8-tetrahydro[1,2,4]triazolo[4,3-a]pyridin-3(2H)-one]: the IC50 is 2.8 nM.

Turning to `O=C(C1CC(C(F)(F)F)Cc2nn(Cc3ccc(Cl)nc3)c(=O)n21)N1C[C@@H](F)[C@@H](F)C1` (single isomer, unassigned) [Example 249], the half-maximal inhibitory concentration (IC50) was determined as 0.83 nM.

For `O=C([C@@H]1CCCc2nn(Cc3ccc(C(F)(F)F)nc3)c(=O)n21)N1CCSC1` [Example 503, (5S)-5-(1,3-Thiazolidin-3-ylcarbonyl)-2-{[6-(trifluoromethyl)pyridin-3-yl]methyl}-5,6,7,8-tetrahydro[1,2,4]triazolo[4,3-a]pyridin-3(2H)-one], the concentration for half-maximal inhibition (IC50) is 2 nM.

As for `CCn1nc(C(F)(F)F)cc1Cn1nc2n(c1=O)[C@H](C(=O)N1CC[C@H](F)C1)CCC2` [Example 360, (5S)-2-{[1-Ethyl-3-(trifluoromethyl)-1H-pyrazol-5-yl]methyl}-5-{[(3S)-3-fluoropyrrolidin-1-yl]carbonyl}-5,6,7,8-tetrahydro[1,2,4]triazolo[4,3-a]pyridin-3(2H)-one], the half-inhibitory concentration (IC50) was found to be 0.81 nM.

For the compound `O=C(C1CC(C(F)(F)F)Cc2nn(Cc3ccc(C(F)(F)F)nc3)c(=O)n21)N1CCC(F)(F)C1` (racemic) [Example 312, (5RS,7RS)-5-[(3,3-Difluoropyrrolidin-1-yl)carbonyl]-7-(trifluoromethyl)-2-{[6-(trifluoromethyl)pyridin-3-yl]methyl}-5,6,7,8-tetrahydro[1,2,4]triazolo[4,3-a]pyridin-3(2H)-one], the IC50 amounted to 8.9 nM.
